From the supplement of paper PMC4862054

Assays:
MDA-MB-453 [1] = experiment: normalised viability (% of control), CellTiter-Blue; higher = more viable cells (about 100 = DMSO control); conditions: 10 nM; incubation time: 72 h
Experimental: (§1)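 DSRT, CellTiter-Blue viability, 72 h incubation. Signal is normalised to DMSO and benzethonium chloride controls. Value is the normalised response at dose 3.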

MFM-223 = experiment: as above; conditions: 100 nM; incubation time: 72 h
Experimental: as §1

MDA-MB-468 [2] = experiment: as above; conditions: 100 nM; incubation time: 72 h
Experimental: as §1

BT-549 [3] = experiment: as above; conditions: 100 nM; incubation time: 72 h
Experimental: as §1

HDQ-P1 [4] = experiment: as above; conditions: 10 nM; incubation time: 72 h
Experimental: as §1

CAL-85-1 [5] = experiment: as above; conditions: 10 nM; incubation time: 72 h
Experimental: as §1

DU-4475 = experiment: as above; conditions: 10 nM; incubation time: 72 h
Experimental: as §1

MDA-MB-231 = experiment: as above; conditions: 100 nM; incubation time: 72 h
Experimental: as §1

MDA-MB-436 [6] = experiment: as above; conditions: 100 nM; incubation time: 72 h
Experimental: as §1

HCC1143 = experiment: as above; conditions: 100 nM; incubation time: 72 h
Experimental: as §1

HCC1599 = experiment: as above; conditions: 100 nM; incubation time: 72 h
Experimental: as §1

HCC1937 = experiment: as above; conditions: 100 nM; incubation time: 72 h
Experimental: as §1

CAL-148 [7] = experiment: as above; conditions: 10 nM; incubation time: 72 h
Experimental: as §1

BT-474 = experiment: as above; conditions: 100 nM; incubation time: 72 h
Experimental: as §1

Hs578T = experiment: as above; conditions: 100 nM; incubation time: 72 h
Experimental: as §1

SK-BR-3 [8] = experiment: as above; conditions: 100 nM; incubation time: 72 h
Experimental: as §1

CAL-120 = experiment: as above; conditions: 100 nM; incubation time: 72 h
Experimental: as §1

CAL-51 [9] = experiment: as above; conditions: 10 nM; incubation time: 72 h
Experimental: as §1

MDA-MB-453 [10] = experiment: normalised viability (% of control), CellTiter-Blue; higher = more viable cells (about 100 = DMSO control); conditions: incubation time: 72 h
How it was run: (§2)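 Breast cancer cell lines were treated for 72 h in 384-well format and measured by CellTiter-Blue fluorescence at 560/590 nm. Results were normalised per plate to vehicle (100) and a positive kill control (0). The entry is normalised viability at a single listed concentration of the series.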

MDA-MB-468 [11] = experiment: as above; conditions: incubation time: 72 h
How it was run: as §2

BT-549 [12] = experiment: as above; conditions: incubation time: 72 h
How it was run: as §2

CAL-85-1 [13] = experiment: as above; conditions: incubation time: 72 h
How it was run: as §2

MDA-MB-453 [14] = experiment: drug sensitivity score (DSS), CellTiter-Glo (DSS (AUC-based score)); higher = stronger drug effect (viability inhibition or cytotoxicity); extreme values may be limits of the assay; conditions: incubation time: 72 h
How it was run: (§3)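 Each compound occupied 5 concentrations in 10-fold steps over its own 10,000-fold range in 384-well plates, into which breast cancer cell lines were seeded as 20 µl suspension. Following 72 h of incubation, CellTox Green fluorescence (485/520 nm) was measured, and CellTiter-Glo luminescence was measured after 10 min at room temperature. Plates were individually normalised to 0.1 % DMSO and a positive kill control. From the area under the fitted dose-response curve, a drug sensitivity score was calculated.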

HDQ-P1 [15] = experiment: as above; conditions: incubation time: 72 h
How it was run: as §3

MCF-10A = experiment: as above; conditions: incubation time: 72 h
How it was run: as §3

MDA-MB-436 [16] = experiment: as above; conditions: incubation time: 72 h
How it was run: as §3

CAL-148 [17] = experiment: as above; conditions: incubation time: 72 h
How it was run: as §3

SK-BR-3 [18] = experiment: as above; conditions: incubation time: 72 h
How it was run: as §3

CAL-51 [19] = experiment: as above; conditions: incubation time: 72 h
How it was run: as §3

Compound | normalised viability (MDA-MB-453 [1]) [%] | normalised viability (MFM-223) [%] | normalised viability (MDA-MB-468 [2]) [%] | normalised viability (BT-549 [3]) [%] | normalised viability (HDQ-P1 [4]) [%] | normalised viability (CAL-85-1 [5]) [%] | normalised viability (DU-4475) [%] | normalised viability (MDA-MB-231) [%] | normalised viability (MDA-MB-436 [6]) [%] | normalised viability (HCC1143) [%] | normalised viability (HCC1599) [%] | normalised viability (HCC1937) [%] | normalised viability (CAL-148 [7]) [%] | normalised viability (BT-474) [%] | normalised viability (Hs578T) [%] | normalised viability (SK-BR-3 [8]) [%] | normalised viability (CAL-120) [%] | normalised viability (CAL-51 [9]) [%] | normalised viability (MDA-MB-453 [10]; 3 nM) [%] | normalised viability (MDA-MB-453 [10]; 30 nM) [%] | normalised viability (MDA-MB-453 [10]; 100 nM) [%] | normalised viability (MDA-MB-468 [11]; 10 nM) [%] | normalised viability (MDA-MB-468 [11]; 1000 nM) [%] | normalised viability (MDA-MB-468 [11]; 10000 nM) [%] | normalised viability (BT-549 [12]; 10 nM) [%] | normalised viability (BT-549 [12]; 1000 nM) [%] | normalised viability (BT-549 [12]; 10000 nM) [%] | normalised viability (CAL-85-1 [13]; 3 nM) [%] | normalised viability (CAL-85-1 [13]; 30 nM) [%] | normalised viability (CAL-85-1 [13]; 100 nM) [%] | drug sensitivity score (MDA-MB-453 [14]) | drug sensitivity score (HDQ-P1 [15]) | drug sensitivity score (MCF-10A) | drug sensitivity score (MDA-MB-436 [16]) | drug sensitivity score (CAL-148 [17]) | drug sensitivity score (SK-BR-3 [18]) | drug sensitivity score (CAL-51 [19])
COc1cc2/c(=N/c3ccc(Br)cc3F)nc[nH]c2cc1OCC1CCN(C)CC1 [Vandetanib] | 104 | 112 | 93.8 | 89 | 76.7 | 104 | 110 | 94 | 71.3 | 111 | 96.3 | 81.8 | 92 | 90.6 | 67.8 | 63.8 | 98.3 | 99.3 | 89.6 | 94.4 | 91.4 | 89.8 | 74.3 | 28 | 102 | 85.2 | 22.4 | 105 | 109 | 101 | 0 | 0 | 10.3 | 0.551 | 0 | 0 | 0.137
C=C1C[C@@H]2[C@H](CC[C@]3(C)C(=O)CC[C@@H]23)[C@@]2(C)C=CC(=O)C=C12 [Exemestane] | 102 | 93 | 111 | 106 | 102 | 84.4 | 91.1 | 99.2 | 82.8 | 96 | 87.6 | 103 | 95.4 | 99.4 | 94.4 | 78 | 92.7 | 96.2 | 103 | 87.3 | 97.8 | 109 | 112 | 96.5 | 83.5 | 108 | 85.9 | 90.6 | 81.8 | 89.8 | 0 | 0 | 0 | 0 | 0 | 0 | 0
CC(C)C[C@@H](C(=O)N[C@H](C(=O)OC1CCCC1)c1ccccc1)[C@H](O)C(=O)NO [Tosedostat] | 99.1 | 79.8 | 64.6 | 72.7 | 113 | 89.4 | 79.7 | 72.6 | 96.2 | 89.3 | 102 | 67.9 | 91.2 | 110 | 94.2 | 88.7 | 66.8 | 101 | 119 | 101 | 60.4 | 91.5 | 55.5 | 54.2 | 85 | 63 | 39.1 | 104 | 97.8 | 90.8 | 14.1 | 5.25 | 0 | 5.37 | 5.14 | 0 | 4.55
COc1cc(OC2CCN(C)CC2)ccc1Nc1ncc2c(n1)n(C1CCCC1)c(=O)n2C [AZ 3146] | 88.2 | 105 | 106 | 85 | 79.1 | 94.8 | 101 | 96.1 | 93.5 | 133 | 90.1 | 81.8 | 105 | 113 | 82 | 97.3 | 121 | 92.3 | 96 | 97.7 | 85.3 | 109 | 103 | 53.3 | 75.4 | 89.5 | 62 | 111 | 109 | 102 | 0 | 0 | 2.22 | 0 | 0 | 4.5 | 5.98
COCC1(CO)C(=O)C2CCN1CC2 (stereo not given) [Prima-1 Met] | 106 | 87.6 | 106 | 79.3 | 91.2 | 91.4 | 99.2 | 91.3 | 101 | 74.8 | 122 | 118 | 90.2 | 104 | 82.6 | 94.2 | 91.5 | 93.9 | 95.4 | 107 | 98 | 104 | 115 | 104 | 105 | 87.8 | 109 | 91.3 | 78.1 | 103 | 0 | 0 | 0 | 0 | 0 | 0 | 0
